Results from patent US12383585B2, “Methods of treatment of infections using bacteria” (Decoy Biosystems, Inc., priority 2018, dated 2025).

Columns and labels:
[1] = tested on: AAV/HBV (human HBV genome, genotype D); assay: AAV/HBV mouse model, HBV inhibition (Example 4); format: in vivo, C57BL/6 mouse; conditions: for inhibition of HBeAg production (plasma): day 28 of dosing (Day 59 after infection)
Source text: Adeno-associated virus/hepatitis B virus (AAV/HBV) is a recombinant AAV carrying replicable human HBV genome. Taking the advantage of the highly hepatotropic feature of genotype 8 AAV, the human HBV genome can be efficiently delivered to mouse liver cells. Infection of immune competent mice with AAV/HBV can result in long term HBV viremia, including release of human HBV virions, HBsAg and HBeAg into the blood, which mimics chronic HBV infection in patients. The AAV/HBV model can be used to evaluate the in vivo activity of various types of anti-HBV agents. Furthermore, this is an appropriate model for evaluation of immune modulators (see, for example Huang et al., Int. J. Onc. v39 pp1511-1519, 2011).
rAAV8-1.3HBV, genotype D, was purchased from Beijing FivePlus Molecular Medicine Institute (batch number A2018092406). The stock virus of 1×10^12 viral genome (v.g.)/mL was diluted to 5×10^11 v.g./mL with sterile phosphate-buffered saline (PBS) and 1×10^11 v.g. AAV/HBV in 200 μL was injected per 5 week old male C57BL/6 mouse 31 days prior to the initiation of dosing (day −31).
Blood samples (˜100 μL) were collected into K2-EDTA coated tubes via submandibular bleeding on days −17, −7 and −4. The samples were centrifuged at 7,000 g (4° C.) for 10 minutes for plasma collection. At least 40 μL plasma samples were prepared to determine the level of HBV-DNA by qPCR, and the levels of HBs Antigen (HBsAg) and HBe Antigen (HBeAg) by enzyme-linked immunosorbent assay (ELISA). Remaining plasma samples were stored at −80° C. for post-life assays. Based on the plasma levels of HBV DNA, HBsAg, HBeAg and body weights on days −17, −7 and −4, mice with qualified viral infection levels were selected and randomly divided into 7 groups with 5 mice in each group on day −1. All mice were evenly distributed in each group, to ensure no significant difference existed between each group in terms of HBV DNA, HBsAg, HBeAg level and body weight on day −4.
Animal groups were untreated, treated with Entecavir (ETV) at 0.005 mg/kg orally (p.o.) daily on days 0-34, Decoy at 2×10^8 killed bacteria per mouse administered tail vein i.v. on days 1, 2, 8, 9, 15, 16, 22, 23, 29 and 30, or ETV and Decoy. Plasma samples were obtained weekly an analyzed for HBV-DNA, HBsAg and HBeAg as described above.

[2] = tested on: AAV/HBV (human HBV genome, genotype D); assay: AAV/HBV mouse model, long-term HBV inhibition with indomethacin (Example 5); format: in vivo, C57BL/6 mouse; conditions: for inhibition of HBV DNA production (plasma): all groups given indomethacin 10 μg/mL in drinking water, ETV 0.1 mg/kg
Method: This experiment was conducted in order to determine if a non-steroidal anti-inflammatory drug (NSAID) could enhance anti-viral activity by Decoy bacteria, if the anti-viral activity of Decoy is lost after cessation of treatment, and the potential toxic effects of ETV, Decoy and ETV+Decoy treatment. The experiment was carried out as described in Example 4, except that the AAV/HBV virus was injected at day −29, relative to start of dosing. HBV-DNA, HBsAg and HBeAg levels in plasma were determined on days −15, −8 and −1, relative to start of dosing on day 0, and the ETV dose was increased to 0.1 mg/kg. In addition, all groups represented in FIGS. 3, 4, 5 and 6 were administered indomethacin (NSAID) daily (10 μg/mL in drinking water). Dosing was carried out for 5 weeks as in Example 4, with plasma levels of HBV-DNA, HBsAg and HBeAg determined weekly, as well as every other week for 27 weeks after cessation of treatment. Inhibitory activity was determined by comparing treated groups at each time point to the control (indomethacin alone) group at the same time-point by unpaired, non-parametric Mann-Whitney statistical analysis.
Upon termination, the liver from each mouse was divided into multiple sections, snap frozen in liquid nitrogen immediately upon collection and stored at −80° C. Liver sections were used for HBV DNA detection and additional sections from each mouse liver were fixed in 10% neutral buffered formalin (NB F) for about 24 hours, then transferred for routine dehydration and paraffin embedding. Paraffin blocks were sectioned for hematoxylin-eosin (H&E) staining and pathology analysis, as well immunohistochemistry (IHC) analysis for HBsAg and HBcAg.

[3] = tested on: human peripheral blood mononuclear cells (PBMCs); assay: Induction of cytokine secretion from human PBMCs in vitro (Luminex); format: cell-based; conditions: full titration peak mean
Method: Supernatants were harvested by centrifuging plates at 1,000 rpm for 10 minutes and stored at −80° C. Luminex analysis of cytokine levels was carried out with Millipore Human Cytokine/Chemokine Magnetic Bead panels HCYTOMAG-60K and HSTCMAG-28SK. Levels of cytokines were interpolated off a standard curve using a […] non-linear regression analysis where the fit=(A+((B−A)/(1+(((B−E)/(E−A))*((x/C)^D))))). The interpolated data was normalized to vehicle control or unstimulated control and analyzed. PBMCs from fresh normal peripheral blood leukapheresis paks (ALLCells, Alameda, CA) were isolated using a Ficoll gradient (Ficoll-Paque PLUS, Cat #17-144-02, density 1.077+/−0.001 g/mL from GE Healthcare Bio-Sciences, Pittsburgh, PA). The bacteria vehicle was phosphate-buffered saline (PBS) with no calcium and 2 mM MgCl2.
The experiment was carried out as described for Table 1.

Molecule	time to significant inhibition of HBV DNA production after initiation of dosing ([1]; ETV 0.005 mg/kg p.o. daily) [days]	mice with plasma HBV DNA down to the lower limit of quantitation (120 copies/μL plasma) ([1]; by day 28 of dosing (day 59 after infection))	inhibition of HBeAg production (plasma) ([1]; without indomethacin)	inhibition of HBeAg production (plasma) ([1]; without indomethacin, listed as Entecavir)	inhibition of HBV DNA production (plasma) ([1]; vs no treatment group, ETV 0.005 mg/kg p.o. daily, Decoy 2×10^8 killed bacteria i.v. twice weekly)	inhibition of HBsAg production (plasma) ([1]; without indomethacin)	inhibition of HBV DNA at termination (day 253) ([2]; 27 weeks after cessation of treatment, in the presence of indomethacin)	inhibition of HBeAg expression in mouse livers ([2]; 27 weeks after the cessation of treatment, in the presence of indomethacin)	body weight loss ([2]; ETV treatment 0.1 mg/kg, with indomethacin)	inhibition of HBV DNA production (plasma) [2]	GM-CSF induction [3] [pg/mL]	IFNγ induction [3] [pg/mL]	IL-1β induction [3] [pg/mL]	IL-6 induction [3] [pg/mL]	IL-8 induction [3]	IL-10 induction [3] [pg/mL]	IL-12p70 induction [3] [pg/mL]	TNFα induction [3] [pg/mL]
C=C1[C@H](CO)[C@@H](O)C[C@@H]1n1cnc2c(=O)[nH]c(N)nc21 [ETV, Entecavir]	≤ 3	5/5	No inhibition	not	significantly inhibited	No inhibition	Statistically significant inhibition of HBV DNA was lost	not	No body weight loss	inhibited	–	–	–	–	–	–	–	–
COc1ccc2c(c1)c(CC(=O)O)c(C)n2C(=O)c1ccc(Cl)cc1 [indomethacin]	–	–	–	–	–	–	–	–	–	did not inhibit	–	–	–	–	–	–	–	–
CpG ODN 2006	–	–	–	–	–	–	–	–	–	–	0	7	1	241	2,436 pg/mL	374	4	51
Poly(I:C)	–	–	–	–	–	–	–	–	–	–	0	103	22	129	1,452 pg/mL	8	18	208
